In ChEMBL document CHEMBL4819049, “Estrogenic activity of ethyl gallate and its potential use in hormone replacement therapy” (Bioorg Med Chem Lett, 2021):
pIC50: −log10 of the molar value. Activity calls are given as the source filed them. No cut-off for these calls is given here.

How the values were obtained:
MCF7 [1] = experiment: Estrogenic activity at human ER-positive MCF7 cells assessed as increase in cell proliferation at 50 uM incubated for 144 hrs by Soto's E-screen assay; assay type: functional, cell-based
MCF7 [2] = experiment: Cytotoxicity against human ER-positive MCF7 cells assessed as increase in cell proliferation at 12.5 to 100 uM incubated for 24 hrs; assay type: cell-based; conditions: mcf7, 24 h, dose 12.5-100 µM
MCF7 [3] = experiment: Cytotoxicity against human ER-positive MCF7 cells assessed as reduction in cell proliferation at 50 uM incubated for 144 hrs by Soto's E-screen assay; assay type: cell-based; conditions: mcf7, 144 h
Rattus norvegicus [4] = experiment: Estrogenic activity in immature rat model assessed as uterine weight at 10 ug/kg, sc (reference value: 37.67 mg); assay type: functional; conditions: dose 10 µg/kg
MCF7 [5] = experiment: Cytotoxicity against human ER-positive MCF7 cells assessed as decrease in cell proliferation at 12.5 to 100 uM incubated for 24 hrs; assay type: functional, cell-based; conditions: for pIC50: MCF7, 24 h; for inhibition: dose 12.5-100 µM
MCF7 [6] = experiment: Estrogenic activity at human ER-positive MCF7 cells assessed as cell proliferation at 50 uM incubated for 144 hrs by Soto's E-screen assay relative to control; assay type: functional; conditions: read-out: Activity
MCF7 [7] = experiment: Estrogenic activity at human ER-positive MCF7 cells assessed as increase in cell proliferation at 12.5 to 100 uM incubated for 144 hrs in presence of ER antagonist, ICI182780 by Soto's E-screen assay; assay type: functional, cell-based; conditions: dose 12.5-100 µM
[8] = molecular target: T1, Estrogen receptor (Homo sapiens) (UniProt P03372); experiment: Agonist activity at ER in human MCF7 cells assessed as increase in receptor gene activity by luciferase reporter gene assay; assay type: cell-based; conditions: filed as agonist, dose 12.5-100 µM
T1 sequence (whole entry): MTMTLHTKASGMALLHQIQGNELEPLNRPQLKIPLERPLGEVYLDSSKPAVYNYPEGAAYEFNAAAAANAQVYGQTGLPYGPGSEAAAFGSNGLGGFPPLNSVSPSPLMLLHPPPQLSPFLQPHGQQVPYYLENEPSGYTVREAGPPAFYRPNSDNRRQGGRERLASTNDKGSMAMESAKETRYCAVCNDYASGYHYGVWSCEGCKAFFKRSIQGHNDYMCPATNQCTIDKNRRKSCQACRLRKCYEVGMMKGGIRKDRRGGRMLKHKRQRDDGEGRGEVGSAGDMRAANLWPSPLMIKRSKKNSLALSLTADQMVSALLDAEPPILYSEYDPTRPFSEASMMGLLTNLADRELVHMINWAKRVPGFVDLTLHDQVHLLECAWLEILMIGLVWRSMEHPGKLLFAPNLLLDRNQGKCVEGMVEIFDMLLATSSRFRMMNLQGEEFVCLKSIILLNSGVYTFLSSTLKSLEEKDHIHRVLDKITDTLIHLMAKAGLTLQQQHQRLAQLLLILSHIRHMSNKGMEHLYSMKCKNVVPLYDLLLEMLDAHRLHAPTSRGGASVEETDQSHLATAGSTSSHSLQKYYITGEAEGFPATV

[9] = molecular target: T1, Estrogen receptor (Homo sapiens); experiment: Agonist activity at ER in human MCF7 cells assessed as increase in receptor gene activity at 12.5 to 100 uM in presence of ER agonist, 17-beta-estradiol by luciferase reporter gene assay relative to control; assay type: cell-based; conditions: dose 12.5-100 µM
MCF7 [10] = experiment: Estrogenic activity at human ER-positive MCF7 cells assessed as increase in cell proliferation at 50 uM incubated for 144 hrs in presence of ER antagonist, ICI182780 by Soto's E-screen assay; assay type: functional, cell-based
[11] = molecular target: T1, Estrogen receptor (Homo sapiens); experiment: Agonist activity at ER in human MCF7 cells assessed as increase in receptor gene activity at 12.5 to 100 uM in presence of ER antagonist, ICI182780 by luciferase reporter gene assay; assay type: cell-based; conditions: dose 12.5-100 µM
Rattus norvegicus [12] = experiment: Estrogenic activity in immature rat model assessed as uterine weight at 100 mg/kg, sc administered once daily for 3 days (reference value: 37.67 mg); assay type: functional; conditions: dose 100 mg/kg/day; time 3 day
MCF7 [13] = experiment: Estrogenic activity at human ER-positive MCF7 cells assessed as increase in cell proliferation incubated for 144 hrs by Soto's E-screen assay; assay type: functional, cell-based; conditions: dose 25-100 µM
MCF7 [14] = experiment: Cytotoxicity against human ER-positive MCF7 cells assessed as cell proliferation at 50 uM incubated for 144 hrs by Soto's E-screen assay relative to control; assay type: cell-based; conditions: mcf7, 144 h

For C[C@@]12C[C@@]3(O)O[C@@H](O1)[C@]1(COC(=O)c4ccccc4)[C@H]3C[C@@]12O[C@@H]1O[C@H](COC(=O)c2ccccc2)[C@@H](O)[C@H](O)[C@H]1O, the Activity (MCF7 [1]) was “inactive”, the Activity (MCF7 [2]) was “Non-Toxic” and the Activity (MCF7 [3]) was “Non-Toxic”.
For C[C@@]12C[C@@]3(O)O[C@@H](O1)[C@]1(COC(=O)c4ccc(O)cc4)[C@H]3C[C@@]12O[C@@H]1O[C@H](CO)[C@@H](O)[C@H](O)[C@H]1O, the Activity (MCF7 [1]) was “inactive”, the Activity (MCF7 [2]) was “Non-Toxic” and the Activity (MCF7 [3]) was “Non-Toxic”.
O=C(O)c1ccccc1 [BENZOIC ACID] was tested, and the Activity (MCF7 [1]) was “inactive”, the Activity (MCF7 [2]) was “Non-Toxic” and the Activity (MCF7 [3]) was “Non-Toxic”.
In the case of C[C@]12CC[C@@H]3c4ccc(O)cc4CC[C@H]3[C@@H]1CC[C@@H]2O [ESTRADIOL], the Activity (Rattus norvegicus [4]) was 51 mg.
With CCOC(=O)c1cc(O)c(O)c(O)c1 [ETHYLGALLATE] the pIC50 (MCF7 [5]) was 4.20, the inhibition (MCF7 [5]) was “Dose-Dependent Effect” and the growth at 50 µM (MCF7 [6]) was 131%. For the same molecule, the Activity (MCF7 [7]) was “inactive”, the Activity [8] was “Dose-Dependent Effect” and the fold change (FC) [9] was over 2. For the same molecule, the Activity (MCF7 [2]) was “Non-Toxic”, the Activity (MCF7 [10]) was “inactive” and the Activity [11] was “inactive”. For the same molecule, the Activity (Rattus norvegicus [12]) was 43.67 mg and the Activity (MCF7 [13]) was “Dose-Dependent Effect”.
For O=C(O)c1cc(O)c(O)c(O)c1 [GALLIC ACID], the pIC50 (MCF7 [5]) was 4.76, the inhibition (MCF7 [5]) was “Dose-Dependent Effect” and the Activity (MCF7 [14]) was 15.8%. For the same molecule, the Activity (MCF7 [2]) was “Non-Toxic”.
C[C@@]12C[C@@]3(O)O[C@@H](O1)[C@]1(COC(=O)c4ccccc4)[C@H]3C[C@@]12O[C@@H]1O[C@H](CO)[C@@H](O)[C@H](O)[C@H]1O [PAEONIFLORIN] was tested, and the Activity (MCF7 [1]) was “inactive”, the Activity (MCF7 [2]) was “Non-Toxic” and the Activity (MCF7 [3]) was “Non-Toxic”.
COc1ccc(C(C)=O)c(O)c1 [PAEONOL] was tested, and the Activity (MCF7 [1]) was “inactive”, the Activity (MCF7 [2]) was “Non-Toxic” and the Activity (MCF7 [3]) was “Non-Toxic”.
